Legend:
Experiment in all cases: relative viability (nuclei count vs DMSO), 5 days (fraction); higher = more cells survive
Venetoclax + Navitoclax = compound: CC1(C)CCC(CN2CCN(c3ccc(C(=O)NS(=O)(=O)c4ccc(NCC5CCOCC5)c([N+](=O)[O-])c4)c(Oc4cnc5[nH]ccc5c4)c3)CC2)=C(c2ccc(Cl)cc2)C1 [Venetoclax] + CC1(C)CCC(c2ccc(Cl)cc2)=C(CN2CCN(c3ccc(C(=O)NS(=O)(=O)c4ccc(N[C@H](CCN5CCOCC5)CSc5ccccc5)c(S(=O)(=O)C(F)(F)F)c4)cc3)CC2)C1 [Navitoclax] (partner 0.5 µM)
In short: (§1)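 One day after seeding in 1536-well plates, lung cancer cell lines were dosed by pin tool. Dosing was either single-drug or a fixed anchor-drug dose plus five library-drug doses (not always all listed) in √10 steps. After 5 days, nuclei were stained in one fix-and-stain step and counted on 4× images, and relative viability is the nuclei count of treated wells over that of vehicle wells, given as the median of duplicate plates.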

Venetoclax + Foretinib = compound: CC1(C)CCC(CN2CCN(c3ccc(C(=O)NS(=O)(=O)c4ccc(NCC5CCOCC5)c([N+](=O)[O-])c4)c(Oc4cnc5[nH]ccc5c4)c3)CC2)=C(c2ccc(Cl)cc2)C1 [Venetoclax] + COc1cc2c(Oc3ccc(NC(=O)C4(C(=O)Nc5ccc(F)cc5)CC4)cc3F)ccnc2cc1OCCCN1CCOCC1 [Foretinib] (partner 0.25 µM)
In short: as §1

Selumetinib = compound: Cn1cnc2c(F)c(Nc3ccc(Br)cc3Cl)c(C(=O)NOCCO)cc21 [Selumetinib]
In short: (§2)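 Hoechst staining, done together with fixation and permeabilisation, marked nuclei for 4× imaging and MetaXpress counting. This followed 5 days without medium change after lung cancer cell lines, kept overnight at 37 °C in 1536-well plates, were pinned with five library-drug doses (not always all listed) spaced by √10 on vehicle-anchored plates. Viability is the ratio of treated-well to vehicle-well nuclei, expressed as a median across plates. Plates passed only at control CV below 25% with at least one doubling.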

Venetoclax = compound: CC1(C)CCC(CN2CCN(c3ccc(C(=O)NS(=O)(=O)c4ccc(NCC5CCOCC5)c([N+](=O)[O-])c4)c(Oc4cnc5[nH]ccc5c4)c3)CC2)=C(c2ccc(Cl)cc2)C1 [Venetoclax]
In short: as §2

Cell Line	relative viability (Venetoclax + Navitoclax; first compound 0.01 µM)	relative viability (Venetoclax + Navitoclax; first compound 0.03162 µM)	relative viability (Venetoclax + Navitoclax; first compound 0.1 µM)	relative viability (Venetoclax + Navitoclax; first compound 0.3162 µM)	relative viability (Venetoclax + Navitoclax; first compound 1 µM)	relative viability (Venetoclax + Foretinib; first compound 0.01 µM)	relative viability (Venetoclax + Foretinib; first compound 0.03162 µM)	relative viability (Venetoclax + Foretinib; first compound 0.1 µM)	relative viability (Venetoclax + Foretinib; first compound 0.3162 µM)	relative viability (Venetoclax + Foretinib; first compound 1 µM)	relative viability (Selumetinib; 0.02 µM)	relative viability (Selumetinib; 0.06325 µM)	relative viability (Selumetinib; 0.2 µM)	relative viability (Selumetinib; 0.6325 µM)	relative viability (Venetoclax; 0.01 µM)	relative viability (Venetoclax; 0.03162 µM)	relative viability (Venetoclax; 0.1 µM)	relative viability (Venetoclax; 0.3162 µM)	relative viability (Venetoclax; 1 µM)
NCI-H596	0.892	0.935	0.916	0.887	0.919	0.77	0.877	1	0.956	0.743	0.9	0.881	0.889	0.729	1.01	0.972	0.941	0.925	0.888
NCI-H727	0.375	0.462	0.36	0.323	0.516	1.16	0.719	0.834	1.08	0.884	0.5	0.418	0.352	0.385	1.17	0.993	0.848	0.953	0.827
NCI-H838	1.21	1.14	1.1	1.11	1.11	1.05	1.04	1.06	1.05	0.961	0.853	0.863	0.854	0.743	0.965	1.05	0.948	0.957	0.906
NCI-H1793	0.375	0.454	0.287	0.461	0.382	0.769	0.71	0.619	0.79	0.607	0.709	0.682	0.561	0.457	0.933	0.993	0.787	0.887	0.784
NCI-H1355	0.892	0.972	0.804	0.915	0.897	0.967	1.05	1.05	1.02	0.978	0.949	0.85	0.749	0.743	0.957	0.983	1.01	1.03	0.904
HARA	0.996	1.17	1.1	1.11	1.15	0.916	0.947	0.925	0.891	0.886	0.903	0.819	0.824	0.718	0.903	1.08	0.926	1.06	0.993
201T	1.17	1.24	1.27	1.19	1.21	1.2	1.04	0.976	0.98	1.06	0.94	0.901	0.91	0.888	0.975	0.989	0.982	0.984	0.982
NCI-H23	0.869	0.774	0.774	0.82	0.704	0.949	0.945	1.01	1.07	0.993	1.05	0.78	0.758	0.674	1	1.06	0.85	1.07	0.877
IA-LM	0.84	0.899	0.807	0.763	0.662	1.02	1.17	1.13	1.14	0.977	0.776	0.442	0.246	0.186	0.813	1.05	0.886	0.915	0.886
CAL-12T	1.4	1.22	0.956	1.15	1.1	1.17	1.14	1.13	1.18	1.05	0.88	0.794	0.781	0.737	0.944	1.05	0.923	0.956	0.886
NCI-H647	1.16	1.26	1.22	1.16	0.901	1.08	1.26	1.13	1.18	1.11	0.936	0.797	0.809	0.793	1.06	0.991	0.798	1	0.884
NCI-H1915	0.763	0.79	0.733	0.788	0.779	1.08	1.01	1.06	1.01	1.01	1.07	0.84	0.666	0.581	0.954	1.03	0.937	0.991	0.92
NCI-H2087	1.01	0.982	0.921	0.942	0.974	0.911	1.18	1.13	0.955	0.893	0.849	0.672	0.48	0.318	0.921	1.03	0.821	1.01	1.02
NCI-H2085	0.952	1.16	1.17	1.26	1.06	1.01	1.03	0.905	0.919	0.884	0.863	0.844	0.881	0.788	0.873	1.08	1.03	0.969	0.928
